Measurements reported in PubChem BioAssay AID1259408 (Genetic Toxicology Data Bank (GENE-TOX), 2018).
Activity calls are given as the source filed them. No rule for the calls is given here.

Tested on: GENE-TOX genotoxicity assays, various organisms and cells
Experiment: GENE-TOX mutagenicity studies
Conditions: for call: Assay Type: In vivo carcinogenicity studies
[1] = Species/Cell Type: Mammalian polychromatic erythrocytes, Assay Type: Micronucleus test, chromosome aberrations, Assay Code: MNTT, Evaluation Type: Evaluation A (Pre-1980)
[2] = Species/Cell Type: Escherichia coli polA (W3119 vs P3478), Assay Type: Rec-assay, DNA effects (bacterial DNA repair), Assay Code: RE1-, Evaluation Type: Evaluation A (Pre-1980)
[3] = Species/Cell Type: Salmonella typhimurium (one or more of the five standard strains: TA98, TA100, TA1535, TA1537, and TA1538), Assay Type: Histidine reverse gene mutation, Ames assay, Assay Code: SAL+*, Activation: With metabolic activation, Evaluation Type: Evaluation A (Pre-1980)
[4] = Species/Cell Type: Escherichia coli polA (W3119 vs P3478), Assay Type: Rec-assay, DNA effects (bacterial DNA repair), Assay Code: RE1+, Evaluation Type: Evaluation A (Pre-1980)
[5] = Species/Cell Type: Drosophila melanogaster, Assay Type: Sex-linked recessive lethal gene mutation, Assay Code: SRLT, Evaluation Type: Evaluation A (Pre-1980)
[6] = Species/Cell Type: Nonhuman, Assay Code: CCG+, Evaluation Type: Evaluation A (Pre-1980)
[7] = Species/Cell Type: Human lymphocytes, Assay Type: Sister-chromatid exchange (SCE) in vitro, Assay Code: SCL+D, Dose Response: With dose response, Evaluation Type: Evaluation B (Post-1980)
[8] = Species/Cell Type: Human, Assay Type: Sister-chromatid exchange (SCE) in vitro, Assay Code: SC1+D, Dose Response: With dose response, Evaluation Type: Evaluation B (Post-1980)
[9] = Species/Cell Type: Drosophila melanogaster, Assay Type: Sex-linked recessive lethal gene mutation, Assay Code: SRL+, Evaluation Type: Evaluation A (Pre-1980)
[10] = Species/Cell Type: Salmonella typhimurium (one or more of the five standard strains: TA98, TA100, TA1535, TA1537, and TA1538), Assay Type: Histidine reverse gene mutation, Ames assay, Assay Code: SALT, Evaluation Type: Evaluation A (Pre-1980)
[11] = Species/Cell Type: Nonhuman, Assay Type: Sister-chromatid exchange (SCE) in vitro, Assay Code: SC2+, Evaluation Type: Evaluation B (Post-1980)
[12] = Species/Cell Type: Salmonella typhimurium (one or more of the five standard strains: TA98, TA100, TA1535, TA1537, and TA1538), Assay Type: Histidine reverse gene mutation, Ames assay, Assay Code: SAL+, Evaluation Type: Evaluation A (Pre-1980)

With OC[C@H]1O[C@@](CO)(O[C@H]2O[C@H](CO)[C@@H](O)[C@H](O)[C@H]2O)[C@@H](O)[C@@H]1O the mutagenic call [1] was “no conclusion” and the mutagenic call (Species/Cell Type: Nonhuman, Assay Type: Sister-chromatid exchange (SCE) in vitro, Assay Code: SC2T, Evaluation Type: Evaluation B (Post-1980)) was “no conclusion”.
With NC[C@H]1O[C@H](O[C@H]2[C@H](O)[C@@H](O[C@H]3O[C@H](CO)[C@@H](O)[C@H](N)[C@H]3O)[C@H](N)C[C@@H]2N)[C@H](O)[C@@H](O)[C@@H]1O the mutagenic call (Species/Cell Type: Bacillus subtilis (H17 vs M45T), Assay Type: Rec-assay, spot test, DNA effects (bacterial DNA repair), Assay Code: REXT, Evaluation Type: Evaluation A (Pre-1980)) was “no conclusion”, the mutagenic call [2] was “inactive; negative” and the mutagenic call (Species/Cell Type: Saccharomyces cerevisiae, Assay Type: Mitotic recombination or gene conversion, Assay Code: YEH-, Evaluation Type: Evaluation A (Pre-1980)) was “inactive; negative”.
In the case of CC(CO)OS(C)(=O)=O (configuration not stated), the mutagenic call (Species/Cell Type: Hordeum vulgare (barley), Assay Type: Chromosome aberrations, Assay Code: HOC+D, Dose Response: With dose response, Evaluation Type: Evaluation A (Pre-1980)) was “active; positive”.
With O=c1cccc2cc(O)c(O)c(O)c2c1O the mutagenic call (Species/Cell Type: Allium cepa, Assay Type: Chromosome aberrations, Assay Code: ALC-, Evaluation Type: Evaluation A (Pre-1980)) was “inactive; negative”.
In the case of COc1cc2c(c3oc(=O)c4c(c13)[C@@H](O)CC4=O)[C@@H]1C=CO[C@@H]1O2, the mutagenic call [3] was “active; positive”.
In the case of OCN1CCN(CO)C1=S, the mutagenic call (Species/Cell Type: Mammalian polychromatic erythrocytes, Assay Type: Micronucleus test, chromosome aberrations, Assay Code: MNTT, Evaluation Type: Evaluation B (Post-1980)) was “no conclusion”.
CC(C)CN(N=O)C(N)=O was tested, and the mutagenic call (Species/Cell Type: Arabidopsis species, Assay Type: Gene mutation, Assay Code: ARM+D, Dose Response: With dose response, Evaluation Type: Evaluation A (Pre-1980)) was “active; positive”.
In the case of CC=O, the mutagenic call [4] was “active; positive”, the mutagenic call (Species/Cell Type: Human lymphocytes, Assay Type: Sister-chromatid exchange (SCE) in vitro, Assay Code: SCL+D, Dose Response: With dose response, Evaluation Type: Evaluation A (Pre-1980)) was “active; positive” and the mutagenic call (Species/Cell Type: Human, Assay Type: Sister-chromatid exchange (SCE) in vitro, Assay Code: SC1+D, Dose Response: With dose response, Evaluation Type: Evaluation A (Pre-1980)) was “active; positive”. For the same compound, the mutagenic call (Species/Cell Type: Nonhuman, Assay Type: Sister-chromatid exchange (SCE) in vitro, Assay Code: SC2+, Evaluation Type: Evaluation A (Pre-1980)) was “active; positive” and the mutagenic call (Species/Cell Type: Nonhuman, Assay Type: Sister-chromatid exchange (SCE) in vivo, Assay Code: SC3+D, Dose Response: With dose response, Evaluation Type: Evaluation B (Post-1980)) was “active; positive”.
In the case of C/[N+]([O-])=N/CO[C@@H]1O[C@H](CO)[C@@H](O)[C@H](O)[C@H]1O, the mutagenic call [5] was “no conclusion”, the call [6] was “active; positive” and the mutagenic call (Species/Cell Type: Salmonella typhimurium (one or more of the five standard strains: TA98, TA100, TA1535, TA1537, and TA1538), Assay Type: Histidine reverse gene mutation, Ames assay, Assay Code: SAL-, Evaluation Type: Evaluation A (Pre-1980)) was “inactive; negative”. The mutagenic call (Species/Cell Type: Salmonella typhimurium, Assay Type: Forward and reverse gene mutation, host-mediated assay, Assay Code: HMA+, Evaluation Type: Evaluation A (Pre-1980)) was “active; positive”.
With O=[N+]([O-])c1ccc(C2CO2)cc1 (configuration not stated) the mutagenic call [7] was “active; positive” and the mutagenic call [8] was “active; positive”.
In the case of Cc1ccc(N=O)cc1, the mutagenic call (Species/Cell Type: Saccharomyces cerevisiae, Assay Type: Mitotic recombination or gene conversion, Assay Code: YEC+, Evaluation Type: Evaluation A (Pre-1980)) was “active; positive”.
With CC(C)N1C(=O)c2ccccc2NS1(=O)=O the mutagenic call (Species/Cell Type: Saccharomyces cerevisiae, Assay Type: Mitotic recombination or gene conversion, Assay Code: YEC-, Evaluation Type: Evaluation A (Pre-1980)) was “inactive; negative”.
For C[C@@H]1C(=O)OCC2=CCN3CC[C@@H](OC(=O)[C@@H](C)[C@@]1(C)O)[C@@H]23, the mutagenic call [9] was “active; positive” and the mutagenic call (Species/Cell Type: Drosophila melanogaster, Sex: Male, Assay Type: Heritable translocation test, chromosome aberrations, Assay Code: DHT+, Evaluation Type: Evaluation A (Pre-1980)) was “active; positive”.
For CNC[C@H](O)c1ccc(O)c(O)c1, the mutagenic call [1] was “no conclusion” and the mutagenic call (Species/Cell Type: Mouse, Sex: Male, Assay Type: Sperm morphology, Assay Code: SPI-, Evaluation Type: Evaluation A (Pre-1980)) was “inactive; negative”.
CCN(CC)CCNc1ccc(C)c2sc3ccccc3c(=O)c12 was tested, and the mutagenic call (Species/Cell Type: Drosophila melanogaster, Assay Type: Aneuploidy, whole sex chromosome loss, chromosome aberrations, Assay Code: DAC+M, Evaluation Type: Evaluation A (Pre-1980)) was “active; positive”, the mutagenic call [9] was “active; positive” and the mutagenic call [4] was “active; positive”. For the same compound, the mutagenic call (Species/Cell Type: Fischer rat embryo (RLV/1706) cells, Assay Type: Cell transformation, viral enhanced, Assay Code: CTR+, Evaluation Type: Evaluation A (Pre-1980)) was “active; positive”, the mutagenic call (Species/Cell Type: Mouse lymphoma (L5178Y) cells, Assay Type: Forward gene mutation at the thymidine kinase (TK) locus, chromosome aberrations, Assay Code: L51+, Evaluation Type: Evaluation A (Pre-1980)) was “active; positive” and the mutagenic call (Species/Cell Type: Neurospora crassa, Assay Type: Aneuploidy, chromosome aberrations, Assay Code: NEN-, Evaluation Type: Evaluation A (Pre-1980)) was “inactive; negative”. For the same compound, the mutagenic call (Species/Cell Type: Neurospora crassa, Assay Type: Forward gene mutation, Assay Code: NEF+, Evaluation Type: Evaluation A (Pre-1980)) was “active; positive”, the mutagenic call [3] was “active; positive” and the mutagenic call [10] was “no conclusion”.
For C=Cc1cn([C@H]2C[C@H](O)[C@@H](CO)O2)c(=O)[nH]c1=O, the mutagenic call (Species/Cell Type: Human lymphocytes, Assay Type: Sister-chromatid exchange (SCE) in vitro, Assay Code: SCL+, Evaluation Type: Evaluation B (Post-1980)) was “active; positive” and the mutagenic call [8] was “active; positive”.
For Nc1ccc(N=Nc2cccc(N=Nc3ccc(N)cc3N)c2)c(N)c1, the mutagenic call (Species/Cell Type: Bacillus subtilis (H17 vs M45), Assay Type: Rec-assay, spot test, DNA effects (bacterial DNA repair), Assay Code: REWT, Evaluation Type: Evaluation A (Pre-1980)) was “no conclusion”.
In the case of Cc1cc(Cc2ccc(N)c(C)c2)ccc1N, the call [6] was “active; positive”.
In the case of C1CC[C@H]2O[C@H]2C1, the mutagenic call [11] was “active; positive” and the mutagenic call (Species/Cell Type: Nonhuman, Assay Type: Sister-chromatid exchange (SCE) in vitro, Assay Code: SC2T, Evaluation Type: Evaluation A (Pre-1980)) was “no conclusion”.
For C=CC(O)c1ccc(OC)cc1 (configuration not stated), the mutagenic call [10] was “no conclusion”.
With CCOC(=O)N(CCO)N=O the mutagenic call [12] was “active; positive”.
For ClC1=C(Cl)C2(Cl)C3C(Cl)C=CC3C1(Cl)C2(Cl)Cl (configuration not stated), the mutagenic call [5] was “no conclusion”, the call (Species/Cell Type: Nonhuman, Assay Code: CCG+L, Evaluation Type: Evaluation A (Pre-1980)) was “active; positive” and the mutagenic call (Species/Cell Type: Zea mays (corn), Assay Type: Gene mutation, Assay Code: ZEM+, Evaluation Type: Evaluation A (Pre-1980)) was “active; positive”.
With O=Nc1ccc(NNc2ccccc2)cc1 the mutagenic call [12] was “active; positive”.
CC(=O)OCC1=C(C(=O)O)N2C(=O)[C@@H](NC(=O)Cc3cccs3)[C@H]2SC1 was tested, and the mutagenic call [2] was “inactive; negative”.
For C#C[C@]1(OC(C)=O)CC[C@H]2[C@@H]3CCC4=CC(=O)CC[C@@H]4[C@H]3CC[C@@]21C (tested in a mixture with another compound), the mutagenic call (Species/Cell Type: Rodents, Sex: Male, Assay Type: Dominant lethal test, Assay Code: DLT-, Evaluation Type: Evaluation A (Pre-1980)) was “inactive; negative”.
In the case of O.O.O.O.O.O.[Cl-].[Cl-].[Ni+2], the mutagenic call [11] was “active; positive”.
With [CH3][Hg+] the mutagenic call (Species/Cell Type: Allium cepa, Assay Type: Chromosome aberrations, Assay Code: ALC+D, Dose Response: With dose response, Evaluation Type: Evaluation A (Pre-1980)) was “active; positive”, the mutagenic call (Species/Cell Type: Drosophila melanogaster, Assay Type: Aneuploidy, sex chromosome gain, chromosome aberrations, Assay Code: DAG+M+F, Evaluation Type: Evaluation A (Pre-1980)) was “active; positive” and the mutagenic call (Species/Cell Type: Drosophila melanogaster, Assay Type: Aneuploidy, whole sex chromosome loss, chromosome aberrations, Assay Code: DAC+M+F, Evaluation Type: Evaluation A (Pre-1980)) was “active; positive”.
With CC(=O)OC[C@H]1O[C@@H](Oc2cccc3c2C(=O)c2c(O)cccc2C3=O)[C@H](OC(C)=O)[C@@H](OC(C)=O)[C@@H]1OC(C)=O the mutagenic call [3] was “active; positive”.
Oc1ccc(O)cc1 was tested, and the mutagenic call (Species/Cell Type: Allium cepa, Assay Type: Chromosome aberrations, Assay Code: ALC+, Evaluation Type: Evaluation A (Pre-1980)) was “active; positive”, the mutagenic call [7] was “active; positive” and the mutagenic call [8] was “active; positive”. The mutagenic call (Species/Cell Type: Mammalian polychromatic erythrocytes, Assay Type: Micronucleus test, chromosome aberrations, Assay Code: MNT+, Evaluation Type: Evaluation B (Post-1980)) was “active; positive”.
For O=[N+]([O-])c1c2ccccc2c2ccc3cccc4ccc1c2c43, the mutagenic call (Species/Cell Type: Chinese hamster ovary (CHO) cells, Assay Type: Forward gene mutation at the HPRT locus, Assay Code: CHOT, Evaluation Type: Evaluation B (Post-1980)) was “no conclusion” and the mutagenic call [3] was “active; positive”.
With NC12CC3CC(CC(C3)C1)C2 the mutagenic call (Species/Cell Type: Fischer rat embryo (RLV/1706) cells, Assay Type: Cell transformation, viral enhanced, Assay Code: CTR-, Evaluation Type: Evaluation A (Pre-1980)) was “inactive; negative”.
